According to patent US20200016136A1 (VIIV HEALTHCARE UK (NO. 5) LIMITED, priority 2017, published 2020):

Test system: NL-RLuc virus (recombinant NL4-3 HIV with Renilla Luciferase gene)
Assay: Inhibition of HIV replication (NL-RLuc virus in MT-2 cells, luciferase readout)
Type: cell-based, Human immunodeficiency virus (HIV)
Details: MT2, 120 h
In short: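 EC50 derived via median effect equation from at least 2 experiments, using luciferase expression as virus-growth readout. Replication-competent NL-RLuc reporter virus (nef partly replaced by Renilla luciferase) infected MT-2 cells with serial compound dilutions; 5-day incubation in RPMI 1640 plus 10% FBS.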

Row | Compound | EC50
1 | Cc1nc(C)c([C@H](OC(C)(C)C)C(=O)O)c(N2CCC(C)(C)CC2)c1-c1ccc2c(c1)CCN(c1ncc(F)c(N3CCOCC3)n1)C2 [Example 38, (2S)-2-(tert-Butoxy)-2-[4-(4,4-dimethylpiperidin-1-yl)-5-{2-[5-fluoro-4-(morpholin-4-yl)pyrimidin-2-yl]-1,2,3,4-tetrahydroisoquinolin-6-yl}-2,6-dimethylpyridin-3-yl]acetic Acid] | 3 nM
2 | COc1ccncc1-c1cc(C)nc(N2CCc3cc(-c4c(C)nc(C)c([C@H](OC(C)(C)C)C(=O)O)c4N4CCC(C)(C)CC4)ccc3C2)n1 [Example 107, (S)-2-(tert-Butoxy)-2-(4-(4,4-dimethylpiperidin-1-yl)-5-(2-(4-(4-methoxypyridin-3-yl)-6-methylpyrimidin-2-yl)-1,2,3,4-tetrahydroisoquinolin-6-yl)-2,6-dimethylpyridin-3-yl)acetic Acid] | 1 nM
3 | Cc1cccc(Cl)c1CN1CCc2cc(-c3c(CF)nc(C)c([C@H](OC(C)(C)C)C(=O)O)c3N3CCC(C)(C)CC3)ccc2C1 [Example 158, (S)-2-(tert-Butoxy)-2-(5-(2-(2-chloro-6-methylbenzyl)-1,2,3,4-tetrahydroisoquinolin-6-yl)-4-(4,4-dimethylpiperidin-1-yl)-6-(fluoromethyl)-2-methylpyridin-3-yl)acetic Acid] | 5 nM
4 | Cc1nc(C)c([C@H](OC(C)(C)C)C(=O)O)c(N2CCC(C)(C)CC2)c1-c1ccc2c(c1)CCN(c1nccc(N3CCN(CCO)CC3)n1)C2 [Example 69, (S)-2-(tert-Butoxy)-2-(4-(4,4-dimethylpiperidin-1-yl)-5-(2-(4-(4-(2-hydroxyethyl)piperazin-1-yl)pyrimidin-2-yl)-1,2,3,4-tetrahydroisoquinolin-6-yl)-2,6-dimethylpyridin-3-yl)acetic Acid] | 18 nM
5 | Cc1nc(C)c([C@H](OC(C)(C)C)C(=O)O)c(N2CCC(C)(C)CC2)c1-c1ccc2c(c1)CCN(c1cccc(C(=O)O)n1)C2 [Example 142, (S)-6-(6-(5-(tert-Butoxy(carboxy)methyl)-4-(4,4-dimethylpiperidin-1-yl)-2,6-dimethylpyridin-3-yl)-3,4-dihydroisoquinolin-2(1H)-yl)picolinic Acid] | 381 nM
6 | Cc1nc(C)c([C@H](OC(C)(C)C)C(=O)O)c(N2CCC(C)(C)CC2)c1-c1ccc2c(c1)CCN(c1ncnc3c1oc1ccc(Cl)cc13)C2 [Example 122, (S)-2-(tert-Butoxy)-2-(5-(2-(8-chlorobenzofuro[3,2-d]pyrimidin-4-yl)-1,2,3,4-tetrahydroisoquinolin-6-yl)-4-(4,4-dimethylpiperidin-1-yl)-2,6-dimethylpyridin-3-yl)acetic Acid] | 5 nM
7 | Cc1nc(C)c([C@H](OC(C)(C)C)C(=O)O)c(N2CCC(C)(C)CC2)c1-c1ccc2c(c1)CCN(c1ccnc(N3CCS(=O)(=O)CC3)n1)C2 [Example 45, (S)-2-(tert-Butoxy)-2-(4-(4,4-dimethylpiperidin-1-yl)-5-(2-(2-(1,1-dioxidothiomorpholino)pyrimidin-4-yl)-1,2,3,4-tetrahydroisoquinolin-6-yl)-2,6-dimethylpyridin-3-yl)acetic Acid] | 8 nM
8 | Cc1cc(F)ccc1CN1CCc2cc(-c3c(N)nc(Cl)c([C@H](OC(C)(C)C)C(=O)O)c3N3CCC(C)(C)CC3)ccc2C1 [Example 99, (S)-2-(6-Amino-2-chloro-4-(4,4-dimethylpiperidin-1-yl)-5-(2-(4-fluoro-2-methylbenzyl)-1,2,3,4-tetrahydroisoquinolin-6-yl)pyridin-3-yl)-2-(tert-butoxy)acetic Acid] | 4 nM
9 | Cc1nc(C)c([C@H](OC(C)(C)C)C(=O)O)c(N2CCC(C)(C)CC2)c1-c1ccc2c(c1)CCN(c1ccnc(N3CCCC3)n1)C2 [Example 20, (2S)-2-(tert-Butoxy)-2-[4-(4,4-dimethylpiperidin-1-yl)-2,6-dimethyl-5-{2-[2-(pyrrolidin-1-yl)pyrimidin-4-yl]-1,2,3,4-tetrahydroisoquinolin-6-yl}pyridin-3-yl]acetic Acid] | 2 nM
10 | CC1(C)CCN(c2c(-c3ccc4c(c3)CCN(c3nccc(N5CCOCC5)n3)C4)c(CN3CCC4(CCC4)CC3)nc(Cl)c2[C@H](OC(C)(C)C)C(=O)O)CC1 [Example 150, (S)-2-(6-((7-Azaspiro[3.5]nonan-7-yl)methyl)-2-chloro-4-(4,4-dimethylpiperidin-1-yl)-5-(2-(4-morpholinopyrimidin-2-yl)-1,2,3,4-tetrahydroisoquinolin-6-yl)pyridin-3-yl)-2-(tert-butoxy)acetic Acid] | 0.3 nM
11 | CCC(C)(C)O[C@H](C(=O)O)c1c(C)ncc(-c2ccc3c(c2)CCN(Cc2ccc(F)cc2C)C3)c1N1CCC(C)(C)CC1 [Example 54, (2S)-2-[4-(4,4-Dimethylpiperidin-1-yl)-5-{2-[(4-fluoro-2-methylphenyl)methyl]-1,2,3,4-tetrahydroisoquinolin-6-yl}-2-methylpyridin-3-yl]-2-[(2-methylbutan-2-yl)oxy]acetic Acid] | 12 nM
12 | Cc1cccc(Cl)c1CN1CCc2cc(-c3c(C(=O)O)nc(C)c([C@H](OC(C)(C)C)C(=O)O)c3N3CCC(C)(C)CC3)ccc2C1 [Example 116, (S)-5-(tert-Butoxy(carboxy)methyl)-3-(2-(2-chloro-6-methylbenzyl)-1,2,3,4-tetrahydroisoquinolin-6-yl)-4-(4,4-dimethylpiperidin-1-yl)-6-methylpicolinic Acid] | 4 nM
13 | Cc1nc(C)c([C@H](OC(C)(C)C)C(=O)O)c(N2CCC(C)(C)CC2)c1-c1ccc2c(c1)CCN(c1nccc(N3CCC(C)(C)CC3)n1)C2 [Example 24, (2S)-2-(tert-Butoxy)-2-[4-(4,4-dimethylpiperidin-1-yl)-5-{2-[4-(4,4-dimethylpiperidin-1-yl)pyrimidin-2-yl}-1,2,3,4-tetrahydroisoquinolin-6-yl}-2,6-dimethylpyridin-3-yl]acetic Acid] | 8 nM
14 | COc1cccc(-c2cc(N3CCc4cc(-c5c(C)nc(C)c([C@H](OC(C)(C)C)C(=O)O)c5N5CCC(C)(C)CC5)ccc4C3)ncn2)c1 [Example 79, (S)-2-(tert-Butoxy)-2-(4-(4,4-dimethylpiperidin-1-yl)-5-(2-(6-(3-methoxyphenyl)pyrimidin-4-yl)-1,2,3,4-tetrahydroisoquinolin-6-yl)-2,6-dimethylpyridin-3-yl)acetic Acid] | 11 nM
15 | Cc1nc(C)c([C@H](OC(C)(C)C)C(=O)O)c(N2CCC(C)(C)CC2)c1-c1ccc2c(c1)CCN(c1ncnc(N3CCC(CCO)CC3)n1)C2 [Example 63, (S)-2-(tert-Butoxy)-2-(4-(4,4-dimethylpiperidin-1-yl)-5-(2-(4-(4-(2-hydroxyethyl)piperidin-1-yl)-1,3,5-triazin-2-yl)-1,2,3,4-tetrahydroisoquinolin-6-yl)-2,6-dimethylpyridin-3-yl)acetic Acid] | 4 nM
16 | COc1ccccc1-c1cc(N2CCc3cc(-c4c(C)nc(C)c([C@H](OC(C)(C)C)C(=O)O)c4N4CCC(C)(C)CC4)ccc3C2)ncn1 [Example 123, (S)-2-(tert-Butoxy)-2-(4-(4,4-dimethylpiperidin-1-yl)-5-(2-(6-(2-methoxyphenyl)pyrimidin-4-yl)-1,2,3,4-tetrahydroisoquinolin-6-yl)-2,6-dimethylpyridin-3-yl)acetic Acid] | 11 nM
